Drawing on PubChem BioAssay AID1963872 (Molecular Pharmacology Branch, DTP, NCI, 2024), this text covers IC50 and viability, T/C for six molecules.

The subject of this assay is KRAS patient-derived spheroids with HUVEC/MSC, viability. The assay can be described thus: Anticancer human tumor 519858-162-T-J1-PDC patient-derived colon adenocarcinoma cell line growth inhibition [KRAS2]. The conditions noted are these: for viability, T/C: stronger effect = lower value. Put shortly: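 Combination screen of spheroid viability in tumor-cell co-cultures with endothelial (HUVEC) and mesenchymal stem cell stroma. Each agent was tested in half-log dilutions, topping at clinical Cmax or at 10 microM without a known Cmax.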

[1] abbreviates: curve of first compound, second compound 0.1 µM.
Where [2] appears, read: curve of first compound, second compound 0.316 µM.
[3] abbreviates: curve of first compound, second compound 1 µM.
Where [4] appears, read: curve of first compound, second compound 3.16 µM.
Where [5] appears, read: curve of first compound, second compound 10 µM.
Where [6] appears, read: second compound 0.1 µM, first compound 0.01 µM.
Setting [7] is: second compound 0.1 µM, first compound 0.0316 µM.
The mark [8] stands for this setting: second compound 0.1 µM, first compound 0.1 µM.
The mark [9] stands for this setting: second compound 0.1 µM, first compound 0.316 µM.
[10] abbreviates: second compound 0.1 µM, first compound 1 µM.
Where [11] appears, read: second compound 0.1 µM, first compound 3.16 µM.
The mark [12] stands for this setting: second compound 0.316 µM, first compound 0.01 µM.
Setting [13] is: second compound 0.316 µM, first compound 0.0316 µM.
Where [14] appears, read: second compound 0.316 µM, first compound 0.1 µM.
The mark [15] stands for this setting: second compound 0.316 µM, first compound 0.316 µM.
[16] abbreviates: second compound 0.316 µM, first compound 1 µM.
[17] abbreviates: second compound 0.316 µM, first compound 3.16 µM.
Setting [18] is: second compound 1 µM, first compound 0.01 µM.
[19] abbreviates: second compound 1 µM, first compound 0.0316 µM.
The mark [20] stands for this setting: second compound 1 µM, first compound 0.1 µM.
Setting [21] is: second compound 1 µM, first compound 0.316 µM.
Where [22] appears, read: second compound 1 µM, first compound 1 µM.
Setting [23] is: second compound 1 µM, first compound 3.16 µM.
Setting [24] is: second compound 3.16 µM, first compound 0.01 µM.
[25] abbreviates: second compound 3.16 µM, first compound 0.0316 µM.
[26] abbreviates: second compound 3.16 µM, first compound 0.1 µM.
[27] abbreviates: second compound 3.16 µM, first compound 0.316 µM.
Where [28] appears, read: second compound 3.16 µM, first compound 1 µM.
[29] abbreviates: second compound 3.16 µM, first compound 3.16 µM.
Setting [30] is: second compound 10 µM, first compound 0.01 µM.
Where [31] appears, read: second compound 10 µM, first compound 0.0316 µM.
[32] abbreviates: second compound 10 µM, first compound 0.1 µM.
Where [33] appears, read: second compound 10 µM, first compound 0.316 µM.
Setting [34] is: second compound 10 µM, first compound 1 µM.
[35] abbreviates: second compound 10 µM, first compound 3.16 µM.

A value given as a limit tells only on which side of the number the result lay.
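Also: compound exposure lasted seven days before readout.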
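For viability, T/C in this document: 100% = DMSO vehicle control viability.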

In the case of `CC(=O)OC12COC1CC(O)C1(C)C(=O)C(O)C3=C(C)C(OC(=O)C(O)C(NC(=O)OC(C)(C)C)c4ccccc4)CC(O)(C(OC(=O)c4ccccc4)C21)C3(C)C` (centres undefined) + CNCc1ccccc1-c1csc(C(C)Nc2nc(C)nc3cc(OC)c(OC)cc23)c1, the IC50 by setting is: under setting [1], more than 3160 nM; under setting [2], more than 3160 nM; under setting [3], more than 3160 nM; under setting [4], 81.6 nM; under setting [5], less than 10 nM. In addition, the viability, T/C is 96.1% under setting [6]; 75% under setting [7]; 77% under setting [8]; 74.6% under setting [9]; 78% under setting [10]; 62.5% under setting [11]. In addition, the viability, T/C was 76.2% under setting [12]; 66.5% under setting [13]; 85.8% under setting [14]; 71.9% under setting [15]; 63.6% under setting [16]; 73.9% under setting [17]. Moreover, the viability, T/C under setting [18] was 80.8%; the viability, T/C under setting [19] was 129%; the viability, T/C under setting [20] was 94.9%; the viability, T/C under setting [21] was 106%; the viability, T/C under setting [22] is 86.2%; the viability, T/C under setting [23] was 68.5%. For the same molecule, the viability, T/C is 117% under setting [24]; 74.8% under setting [25]; 38.7% under setting [26]; 38% under setting [27]; 21.1% under setting [28]; 80.8% under setting [29]. Moreover, the viability, T/C reads like this: under setting [30], 43.4%; under setting [31], 1.29%; under setting [32], 10.6%; under setting [33], 8.61%; under setting [34], 86.4%; under setting [35], 2.58%.

Turning to `CC(C)n1nc(-c2ccc3oc(N)nc3c2)c2c(N)ncnc21`, the viability, T/C (compound 0.001 µM) is 97.5% [middle of 5 runs]. Also, the concentration for half-maximal inhibition (IC50) (curve of compound) is more than 100 nM.

`CN(C)C/C=C/C(=O)Nc1cc2c(Nc3ccc(F)c(Cl)c3)ncnc2cc1O[C@H]1CCOC1`: the viability, T/C (compound 0.1 µM) is 92.6% [middle of 5 runs]. For the same molecule, the IC50 (curve of compound) is more than 100 nM.

As to `CC1COCCN1c1cc(-c2ccnn2C)c2ccnc(-c3ccn[nH]3)c2n1` (centres undefined) + COc1cc2nc(C)nc(NC(C)c3cc(N)cc(C(F)(F)F)c3)c2cc1OC1CCOC1, the IC50 turned out to be 1400 nM under setting [1]; 1220 nM under setting [2]; 672 nM under setting [3]; 319 nM under setting [4]; 138 nM under setting [5]. Besides, the viability, T/C reads like this: under setting [6], 80.5%; under setting [7], 69.2%; under setting [8], 76.3%; under setting [9], 57.6%; under setting [10], 57.3%; under setting [11], 40%. For the same molecule, the viability, T/C by setting is: under setting [12], 74.1%; under setting [13], 62.8%; under setting [14], 68.7%; under setting [15], 61.5%; under setting [16], 56.2%; under setting [17], 28.2%. For the same molecule, the viability, T/C was 65.9% under setting [18]; 67.6% under setting [19]; 56.8% under setting [20]; 53.7% under setting [21]; 51.3% under setting [22]; 30% under setting [23]. For the same molecule, the viability, T/C is, setting by setting: under setting [24], 65.3%; under setting [25], 59%; under setting [26], 53.9%; under setting [27], 50.1%; under setting [28], 28.4%; under setting [29], 37.6%. Also, the viability, T/C is, setting by setting: under setting [30], 92.7%; under setting [31], 75.5%; under setting [32], 61.8%; under setting [33], 28.2%; under setting [34], 15%; under setting [35], 19.9%.

As to `CCN1CCN(Cc2ccc(Nc3ncc(F)c(-c4cc(F)c5nc(C)n(C(C)C)c5c4)n3)nc2)CC1` + CC1OCC2(CCN(c3cnc(Sc4ccnc(N)c4Cl)c(N)n3)CC2)C1N, the concentration for half-maximal inhibition (IC50) is 735 nM under setting [1]; more than 1000 nM under setting [2]; 162 nM under setting [3]; less than 3.16 nM under setting [4]; 47.8 nM under setting [5]. Moreover, the viability, T/C by setting is: (second compound 0.1 µM, first compound 0.00316 µM) 80.7%; under setting [6], 79%; under setting [7], 103%; under setting [8], 60.1%; under setting [9], 81.7%; under setting [10], 38.7%. The viability, T/C is, setting by setting: (second compound 0.316 µM, first compound 0.00316 µM) 59.2%; under setting [12], 63.5%; under setting [13], 69.1%; under setting [14], 63.2%; under setting [15], 64.2%; under setting [16], 40.6%. Besides, the viability, T/C reads like this: (second compound 1 µM, first compound 0.00316 µM) 49.9%; under setting [18], 67.8%; under setting [19], 75.5%; under setting [20], 49.4%; under setting [21], 43.1%; under setting [22], 24.3%. Further, the viability, T/C by setting is: (second compound 3.16 µM, first compound 0.00316 µM) 49.7%; under setting [24], 40.7%; under setting [25], 57.9%; under setting [26], 41.7%; under setting [27], 30.9%; under setting [28], 29.4%. Besides, the viability, T/C (second compound 10 µM, first compound 0.00316 µM) was 68.1%; the viability, T/C under setting [30] was 57.4%; the viability, T/C under setting [31] was 48.2%; the viability, T/C under setting [32] was 50%; the viability, T/C under setting [33] was 39.9%; the viability, T/C under setting [34] is 29.2%.

For the molecule `Cn1nccc1Nc1nccc(-c2cc3c(s2)C(C)(C)N(CCN2CCOCC2)C3=O)n1` + CNCc1ccccc1-c1csc(C(C)Nc2nc(C)nc3cc(OC)c(OC)cc23)c1, the IC50 is, setting by setting: under setting [1], 3240 nM; under setting [2], 4470 nM; under setting [3], 1090 nM; under setting [4], less than 31.6 nM; under setting [5], less than 31.6 nM. Besides, the viability, T/C under setting [7] is 102%; the viability, T/C under setting [8] is 90.2%; the viability, T/C under setting [9] was 74.2%; the viability, T/C under setting [10] was 63%; the viability, T/C under setting [11] is 55.7%; the viability, T/C (second compound 0.1 µM, first compound 10 µM) is 33.5%. The viability, T/C under setting [13] is 90.3%; the viability, T/C under setting [14] is 77.5%; the viability, T/C under setting [15] is 68.2%; the viability, T/C under setting [16] was 78.5%; the viability, T/C under setting [17] was 49.2%; the viability, T/C (second compound 0.316 µM, first compound 10 µM) was 39.6%. In addition, the viability, T/C reads like this: under setting [19], 79.5%; under setting [20], 71%; under setting [21], 74.3%; under setting [22], 50.6%; under setting [23], 31.9%; (second compound 1 µM, first compound 10 µM) 25.9%. The viability, T/C is, setting by setting: under setting [25], 38.9%; under setting [26], 48%; under setting [27], 29.8%; under setting [28], 36.6%; under setting [29], 20.8%; (second compound 3.16 µM, first compound 10 µM) 21.2%. In addition, the viability, T/C reads like this: under setting [31], 2.36%; under setting [32], 0.52%; under setting [33], 0.35%; under setting [34], 0.39%; under setting [35], 0.71%; (second compound 10 µM, first compound 10 µM) 0.65%.

As a reminder, the IC50 is the concentration that inhibits the measured activity by half. By viability, T/C is commonly meant the ratio of treated to control.
